In US20260159527A1, “MACROCYCLIC BCL6 DEGRADERS” (DANA-FARBER CANCER INSTITUTE, INC., priority 2022, published 2026):

Molecular target: T1, BCL6 (Homo sapiens, UniProt P41182)
T1 construct: Endogenous BCL6 was tagged with the 11-amino acid SmBiT through CRISPR/Cas9 gene editing; endogenous in cells; host or cells: Su-DHL-4 cells, CRISPR/Cas9 knock-in single cell clone
Test: HiBiT cellular degradation assay (Promega) in Su-DHL-4 cells
Format: cell-based
Conditions: concentration to reach 50% degradation; endogenous BCL6 tagged with SmBiT in Su-DHL-4 cells; 24 hr of compound treatment; relative to DMSO control
Experimental: DC50 (concentration to reach 50% degradation) values were determined from a cellular degradation assay (HiBiT, Promega™) in Su-DHL-4 cells (Table 1). Endogenous BCL6 was tagged with the 11-amino acid SmBiT through CRISPR/Cas9 gene editing and single cell clone selection. After 24 hr of compound treatment, cells were lysed and incubated with LgBiT protein to reconstitute intact nanoluciferase. Substrate was then added and relative luciferase units were measured. Degradation levels for each treatment were taken as a percentage compared to the control, 100% DMSO (Prism).

Row | Structure (SMILES) | DC50 [µM]
1 | CNC(=O)COc1cc2cc3cc(c2n(C)c1=O)OCCCC1CN(CC(C)C1(F)F)c1ncc(Cl)c(n1)N3 (stereo not drawn) [Compound 1] | 0.0019
2 | CNC(=O)COc1cc2cc3cc(c2n(C)c1=O)OCCOC1CC(C)CN(C1)c1ncc(Cl)c(n1)N3 (stereo not drawn) [Compound 2] | 0.00034
3 | CNC(=O)COc1cc2cc3cc(c2n(C)c1=O)OCCNC1CN(CC(C)C1(F)F)c1ncc(Cl)c(n1)N3 (stereo not drawn) [Compound 3] | 0.00036
4 | CNC(=O)COc1cc2cc3cc(c2n(C)c1=O)OCCC[C@@H]1CN(C[C@H](C)C1(F)F)c1ncc(Cl)c(n1)N3 [Compound 5, 2-(((1^3R, 1^5S)-2^5-Chloro-1^4, 1^4-difluoro-1^5,4^1-dimethyl-4^2-oxo-4^1,4^2-dihydro-5-oxa-3-aza-4(6,8)-quinolina-2(2,4)-pyrimidina-1 (1,3)-piperidinacyclooctaphane-4^3-yl)oxy)-N-methylacetamide] | 0.15
5 | CNC(=O)COc1cc2cc3cc(c2n(C)c1=O)OCCO[C@H]1C[C@@H](C)CN(C1)c1ncc(Cl)c(n1)N3 [Compound 7, 2-(((1^3S, 1^5R)-2^5-chloro-1^5,4^1-dimethyl-4^2-oxo-4^1,4^2-dihydro-5,8-dioxa-3-aza-4(6,8)-quinolina-2(2,4)-pyrimidina-1 (1,3)-piperidinacyclooctaphane-4^3-yl)oxy)-N-methylacetamide] | 0.121
6 | C[C@H]1C[C@@H]2CN(C1)c1ncc(Cl)c(n1)Nc1cc(c3c(c1)n(CCC(C)(C)O)c(=O)n3C)OCCO2 [Compound 12, (1^3R, 1^5S)-2^5-chloro-4^1-(3-hydroxy-3-methylbutyl)-1^5,4^3-dimethyl-4^2,4^3-dihydro-4^1H-5,8-dioxa-3-aza-4(6,4)-benzo[d]imidazola-2(2,4)-pyrimidina-1 (1,3)-piperidinacyclooctaphan-4^2-one] | 0.002
7 | C[C@@H]1C[C@H]2CN(C1)c1ncc(Cl)c(n1)Nc1cc(c3c(c1)n(CCC(C)(C)O)c(=O)n3C)OCCO2 [Compound 13, (1^3S,1^5R)-2^5-chloro-4^1-(3-hydroxy-3-methylbutyl)-1^5,4^3-dimethyl-4^2,4^3-dihydro-4^1H-5,8-dioxa-3-aza-4(6,4)-benzo[d]imidazola-2(2,4)-pyrimidina-1 (1,3)-piperidinacyclooctaphan-4^2-one] | > 0.4
8 | C[C@@H]1CN2C[C@H](CCCOc3cc(cc4c3n(C)c(=O)c(=O)n4C[C@H]3C[C@H](O)C3)Nc3nc2ncc3Cl)C1(F)F [Compound 18-1, (1^3S,1^5R)-2^5-Chloro-1^4,1^4-difluoro-4^1-(((1r,3S)-3-hydroxycyclobutyl)methyl)-1^5,4^4-dimethyl-4^1,4^2,4^3,4^4-tetrahydro-5-oxa-3-aza-4(7,5)-quinoxalina-2(2,4)-pyrimidina-1 (1,3)-piperidinacyclooctaphane-4^2,4^3-dione] | 0.031
9 | C[C@@H]1CN2C[C@H](CCCOc3cc(cc4c3n(C)c(=O)c(=O)n4C[C@H]3C[C@@H](O)C3)Nc3nc2ncc3Cl)C1(F)F [Compound 18-2] | 0.0044
10 | C[C@H]1CN2C[C@@H](CCCOc3cc(cc4c3n(C)c(=O)c(=O)n4C[C@H]3C[C@H](O)C3)Nc3nc2ncc3Cl)C1(F)F [Compound 19-1, (1^3R, 1^5S)-2^5-Chloro-1^4, 1^4-difluoro-4^1-(((1r, 3R)-3-hydroxycyclobutyl)methyl)-1^5, 4^4-dimethyl-4^1,4^2,4^3,4^4-tetrahydro-5-oxa-3-aza-4(7,5)-quinoxalina-2(2,4)-pyrimidina-1 (1,3)-piperidinacyclooctaphane-4^2,4^3-dione] | > 0.4
11 | C[C@H]1CN2C[C@@H](CCCOc3cc(cc4c3n(C)c(=O)c(=O)n4C[C@H]3C[C@@H](O)C3)Nc3nc2ncc3Cl)C1(F)F [Compound 19-2, (1^3R, 1^5S)-2^5-chloro-1^4,1^4-difluoro-4^1-(((1s,3S)-3-hydroxycyclobutyl)methyl)-1^2,4^4-dimethyl-4^2,4^2,4^3,4^4-tetrahydro-5-oxa-3-aza-4(7,5)-quinoxalina-2(2,4)-pyrimidina-1 (1,3)-piperidinacyclooctaphane-4^2,4^3-dione] | > 0.4
12 | C[C@@H]1CN2C[C@H](CCCOc3cc(cc4[nH]c(=O)c(=O)n(C)c34)Nc3nc2ncc3Cl)C1(F)F [Compound 28, (1^3S,1^3R)-2^5-Chloro-1^4,1^4-difluoro-1^5,4^4-dimethyl-41, 42, 43,44-tetrahydro-5-oxa-3-aza-4(7,5)-quinoxalina-2(2,4)-pyrimidina-1 (1,3)-piperidinacyclooctaphane-4^2,4^3-dione] | 0.022
13 | C[C@@H]1CN2C[C@H](CCCOc3cc(cc4c3n(C)c(=O)n4C)Nc3nc2ncc3Cl)C1(F)F [Compound 29, (1^3S,1^5R)-2^5-chloro-1^4,1^4-difluoro-1^5,4^14^3-trimethyl-4^2,4^3-dihydro-4^1H-5-oxa-3-aza-4(6,4)-benzo[d]imidazola-2(2,4)-pyrimidina-1 (1,3)-piperidinacyclooctaphan-4^2-one] | 0.076
14 | C[C@H]1CN2C[C@@H](CCCOc3cc(cc4c3n(C)c(=O)n4C)Nc3nc2ncc3Cl)C1(F)F [Compound 30, (1^3R155)-2^5-chloro-1^4,1^4-difluoro-1^5,4^14^3-trimethyl-4^2,4^3-dihydro-4^1H-5-oxa-3-aza-4(6,4)-benzo[d]imidazola-2(2,4)-pyrimidina-1 (1,3)-piperidinacyclooctaphan-4^2-one] | > 0.4
15 | C[C@@H]1CN2C[C@H](NCCOc3cc(cc4[nH]c(=O)n(C)c34)Nc3nc2ncc3Cl)C1(F)F [Compound 31, (1^3S,1^5R)-2^5-chloro-1^4,1^4-difluoro-1^5,4^3-dimethyl-4^2,4^3-dihydro-4^1H-5-oxa-3,8-diaza-4(6,4)-benzo[d]imidazola-2(2,4)-pyrimidina-1 (1,3)-piperidinacyclooctaphan-4^2-one] | 0.0075
16 | C[C@H]1CN2C[C@@H](NCCOc3cc(cc4[nH]c(=O)n(C)c34)Nc3nc2ncc3Cl)C1(F)F [Compound 32, (1^3R, 1^5S)-2^5-chloro-1^4,1^4-difluoro-1^5,4^3-dimethyl-4^2,4^3-dihydro-4^1H-5-oxa-3,8-diaza-4(6,4)-benzo[d]imidazola-2(2,4)-pyrimidina-1 (1,3)-piperidinacyclooctaphan-4^2-one] | > 0.4

Now from value to molecule:

Row | DC50 [µM] | Structure (SMILES)
17 | 0.011 | C[C@@H]1CN2C[C@H](CCCOc3cc(cc4c3n(C)c(=O)n4CCC(C)(C)O)Nc3nc2ncc3Cl)C1(F)F [Compound 10, (1^3S,1^5R)-2^5-chloro-1^4,1^4-difluoro-4^1-(3-hydroxy-3-methylbutyl)-1^5,4^3-dimethyl-4^2, 4^3-dihydro-4^1H-5-oxa-3-aza-4(6,4)-benzo[d]imidazola-2(2,4)-pyrimidina-1 (1,3)-piperidinacyclooctaphan-4^2-one]
18 | > 0.4 | C[C@H]1CN2C[C@@H](CCCOc3cc(cc4c3n(C)c(=O)n4CCC(C)(C)O)Nc3nc2ncc3Cl)C1(F)F [Compound 11, (1^3R, 1^5S)-2^5-Chloro-1^4, 1^4-difluoro-4^1-(3-hydroxy-3-methylbutyl)-1^5,4^3-dimethyl-4^2,4^3-dihydro-4^1H-5-oxa-3-aza-4(6,4)-benzo[d]imidazola-2(2,4)-pyrimidina-1 (1,3)-piperidinacyclooctaphan-4^2-one]
19 | 0.0029 | C[C@@H]1CN2C[C@H](NCCOc3cc(cc4c3n(C)c(=O)n4CCC(C)(C)O)Nc3nc2ncc3Cl)C1(F)F [Compound 14, (1^3S,1^5R)-2^5-chloro-1^4,1^4-difluoro-4^1-(3-hydroxy-3-methylbutyl)-1^5,4^3-dimethyl-4^2,4^3-dihydro-41 H-5-oxa-3,8-diaza-4(6,4)-benzo[d]imidazola-2(2,4)-pyrimidina-1 (1,3)-piperidinacyclooctaphan-4^2-one]
20 | 0.082 | C[C@H]1CN2C[C@@H](NCCOc3cc(cc4c3n(C)c(=O)n4CCC(C)(C)O)Nc3nc2ncc3Cl)C1(F)F [Compound 15, (1^3R, 1^5S)-2^5-chloro-1^4,1^4-difluoro-4^1-(3-hydroxy-3-methylbutyl)-1^5,4^3-dimethyl-4^2,4^3-dihydro-41 H-5-oxa-3,8-diaza-4(6,4)-benzo[d]imidazola-2(2,4)-pyrimidina-1 (1,3)-piperidinacyclooctaphan-4^2-one]
21 | 0.0024 | C[C@H]1C[C@@H]2CN(C1)c1ncc(Cl)c(n1)Nc1cc(c3c(c1)n(CCC(C)(C)O)c(=O)n3C)OCCN2 [Compound 16, (1^3R, 1^5S)-2^5-Chloro-4^1-(3-hydroxy-3-methylbutyl)-1^5,4^3-dimethyl-4^2,4^3-dihydro-41 H-5-oxa-3,8-diaza-4(6,4)-benzo[d]imidazola-2(2,4)-pyrimidina-1 (1,3)-piperidinacyclooctaphan-4^2-one]
22 | 0.033 | C[C@@H]1C[C@H]2CN(C1)c1ncc(Cl)c(n1)Nc1cc(c3c(c1)n(CCC(C)(C)O)c(=O)n3C)OCCN2 [Compound 17, (1^3S,1^5R)-2^5-Chloro-4^1-(3-hydroxy-3-methylbutyl)-1^5,4^3-dimethyl-4^2,4^3-dihydro-41 H-5-oxa-3,8-diaza-4(6,4)-benzo[d]imidazola-2(2,4)-pyrimidina-1 (1,3)-piperidinacyclooctaphan-4^2-one]
23 | 0.0019 | C[C@@H]1CN2C[C@H](OCCOc3cc(cc4c3n(C)c(=O)n4CCC(C)(C)O)Nc3nc2ncc3Cl)C1(F)F [Compound 33, (1^3S,1^5R)-2^5-Chloro-1^4, 1^4-difluoro-4^1-(3-hydroxy-3-methylbutyl)-1^5,4^3-dimethyl-4^2,4^3-dihydro-4^1H-5,8-dioxa-3-aza-4(6,4)-benzo[d]imidazola-2(2,4)-pyrimidina-1 (1,3)-piperidinacyclooctaphan-4^2-one]
24 | > 0.4 | C[C@H]1CN2C[C@@H](OCCOc3cc(cc4c3n(C)c(=O)n4CCC(C)(C)O)Nc3nc2ncc3Cl)C1(F)F [Compound 34, (1^3R, 1^5S)-2^5-Chloro-1^4,1^4-difluoro-4^1-(3-hydroxy-3-methylbutyl)-1^5,4^3-dimethyl-4^2,4^3-dihydro-4 H-5,8-dioxa-3-aza-4(6,4)-benzo[d]imidazola-2(2,4)-pyrimidina-1 (1,3)-piperidinacyclooctaphan-4^2-one]
